Key:
[1] = Drug concentration in overnight fasted cynomolgus monkey plasma at 2 mg/kg, po or 1 mg/kg, iv measured after 24 hrs; type: ADME, organism-based, Macaca fascicularis
Cytochrome P450 3A4 = Cytochrome P450 3A4 (Homo sapiens, UniProt P08684); assay: Inhibition of CYP3A4 (unknown origin); type: ADME
[2] = AUC(0 to t) in overnight fasted cynomolgus monkey at 2 mg/kg, po or 1 mg/kg, iv; type: ADME, organism-based, Macaca fascicularis; parameters: dose 2 mg/kg, route po; conditions: in vivo
[3] = Cmax in overnight fasted mouse at 5 mg/kg, po or 1 mg/kg, iv; type: ADME, organism-based; parameters: dose 5 mg/kg, route po; conditions: in vivo
[4] = Metabolic stability in cynomolgus monkey liver microsomes assessed as half life in presence of NADPH at 0.5 uM by LC-MS/MS analysis; type: ADME, Macaca fascicularis, Microsome
[5] = test system: Human immunodeficiency virus 1; assay: Antiviral activity against HIV1 harbouring deltaV370/T371A mutant infected in human MT2 cells measured after 4 to 5 days by dual-luciferase reporter assay; type: functional, organism-based; conditions: mt2
Cytochrome P450 2B6 = biological target: T1, Cytochrome P450 2B6 (Homo sapiens, UniProt P20813); assay: Inhibition of CYP2B6 (unknown origin); type: ADME
T1 sequence (P20813 whole entry): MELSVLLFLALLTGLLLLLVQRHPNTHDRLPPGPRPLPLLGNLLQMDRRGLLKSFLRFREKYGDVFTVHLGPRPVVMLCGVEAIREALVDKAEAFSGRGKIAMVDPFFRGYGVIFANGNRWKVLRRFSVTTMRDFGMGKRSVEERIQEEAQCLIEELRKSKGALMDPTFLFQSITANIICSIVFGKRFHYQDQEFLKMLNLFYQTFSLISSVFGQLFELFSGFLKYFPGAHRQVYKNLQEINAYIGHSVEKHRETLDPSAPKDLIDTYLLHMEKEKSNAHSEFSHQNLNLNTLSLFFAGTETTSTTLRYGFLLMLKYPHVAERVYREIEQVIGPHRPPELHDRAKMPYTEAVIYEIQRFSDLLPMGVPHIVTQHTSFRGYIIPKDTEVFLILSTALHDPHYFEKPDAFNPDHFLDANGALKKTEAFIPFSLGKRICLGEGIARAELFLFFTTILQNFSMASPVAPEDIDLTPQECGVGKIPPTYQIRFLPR

[6] = Oral bioavailability in overnight fasted mouse using spray-dried dispersion at 5 mg/kg; type: ADME, organism-based; conditions: in vivo
[7] = AUC(0 to t) in overnight fasted Sprague-Dawley rat at 5 mg/kg, po or 1 mg/kg, iv; type: ADME, organism-based; parameters: dose 5 mg/kg, route po; conditions: in vivo
[8] = AUC(0 to t) in overnight fasted Beagle dog at 2 mg/kg, po or 1 mg/kg, iv; type: ADME, organism-based, Canis lupus familiaris; parameters: dose 2 mg/kg, route po; conditions: in vivo
[9] = test system: Human immunodeficiency virus 1; assay: Antiviral activity against HIV1 NL (4 to 3) harbouring V362I/deltaV370 mutant transfected in human HEK293T cells by dual-luciferase reporter assay; type: functional, organism-based; conditions: Human immunodeficiency virus 1, HEK-293T
Cytochrome P450 2D6 = Cytochrome P450 2D6 (Homo sapiens, UniProt P10635); assay: Inhibition of CYP2D6 (unknown origin); type: ADME
Chain of Cytochrome P450 2D6 (P10635 whole entry): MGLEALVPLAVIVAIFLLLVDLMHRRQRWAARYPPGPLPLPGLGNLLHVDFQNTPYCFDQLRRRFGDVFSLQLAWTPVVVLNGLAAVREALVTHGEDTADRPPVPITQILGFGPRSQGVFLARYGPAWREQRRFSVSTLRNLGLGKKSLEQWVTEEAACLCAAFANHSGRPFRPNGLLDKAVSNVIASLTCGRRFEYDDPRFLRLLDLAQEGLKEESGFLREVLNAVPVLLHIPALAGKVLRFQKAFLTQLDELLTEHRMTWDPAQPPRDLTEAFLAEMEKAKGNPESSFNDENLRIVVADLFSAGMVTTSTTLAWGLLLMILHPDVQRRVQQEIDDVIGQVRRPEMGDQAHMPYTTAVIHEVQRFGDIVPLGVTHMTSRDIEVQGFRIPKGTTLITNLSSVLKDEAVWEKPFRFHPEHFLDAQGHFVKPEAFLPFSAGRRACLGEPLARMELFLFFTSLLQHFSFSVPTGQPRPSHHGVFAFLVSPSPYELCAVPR

Cytochrome P450 2C9 = Cytochrome P450 2C9 (Homo sapiens, UniProt P11712); assay: Inhibition of CYP2C9 (unknown origin); type: ADME
Chain of Cytochrome P450 2C9 (P11712 whole entry): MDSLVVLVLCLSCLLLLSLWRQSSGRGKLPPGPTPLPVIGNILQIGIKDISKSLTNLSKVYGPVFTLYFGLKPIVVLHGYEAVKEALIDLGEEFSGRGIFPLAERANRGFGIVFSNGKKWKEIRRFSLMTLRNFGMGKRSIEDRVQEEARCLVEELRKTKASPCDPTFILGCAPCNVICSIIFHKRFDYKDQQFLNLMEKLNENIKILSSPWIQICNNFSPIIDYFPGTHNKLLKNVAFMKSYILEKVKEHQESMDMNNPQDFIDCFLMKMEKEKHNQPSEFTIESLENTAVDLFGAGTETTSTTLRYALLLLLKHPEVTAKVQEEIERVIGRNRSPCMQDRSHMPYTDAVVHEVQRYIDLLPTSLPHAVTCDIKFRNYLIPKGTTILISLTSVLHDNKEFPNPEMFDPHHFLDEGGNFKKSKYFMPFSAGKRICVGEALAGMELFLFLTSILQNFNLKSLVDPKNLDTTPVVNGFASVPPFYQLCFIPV

Cytochrome P450 2C19 = Cytochrome P450 2C19 (Homo sapiens, UniProt P33261); assay: Inhibition of CYP2C19 (unknown origin); type: ADME
Chain of Cytochrome P450 2C19 (P33261 whole entry): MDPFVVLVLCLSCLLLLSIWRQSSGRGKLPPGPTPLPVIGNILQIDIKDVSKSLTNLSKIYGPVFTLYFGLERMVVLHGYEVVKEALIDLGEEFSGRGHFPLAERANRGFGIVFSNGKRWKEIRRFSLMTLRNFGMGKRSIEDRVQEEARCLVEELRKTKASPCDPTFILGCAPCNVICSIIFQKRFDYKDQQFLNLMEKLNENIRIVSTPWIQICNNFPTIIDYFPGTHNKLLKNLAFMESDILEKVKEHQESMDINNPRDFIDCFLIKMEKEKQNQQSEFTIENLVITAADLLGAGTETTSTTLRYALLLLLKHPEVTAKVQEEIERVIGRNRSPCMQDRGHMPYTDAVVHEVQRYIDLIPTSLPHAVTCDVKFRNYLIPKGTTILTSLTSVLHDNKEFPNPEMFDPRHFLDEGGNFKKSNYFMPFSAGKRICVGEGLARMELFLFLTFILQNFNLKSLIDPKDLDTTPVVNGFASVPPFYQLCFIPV

[10] = Metabolic stability in mouse liver microsomes assessed as half life in presence of NADPH at 0.5 uM by LC-MS/MS analysis; type: ADME, Microsome
[11] = Cmax in overnight fasted cynomolgus monkey at 2 mg/kg, po or 1 mg/kg, iv; type: ADME, organism-based, Macaca fascicularis; parameters: dose 2 mg/kg, route po; conditions: in vivo
[12] = Drug concentration in overnight fasted mouse plasma at 5 mg/kg, po or 1 mg/kg, iv measured after 24 hrs; type: ADME, organism-based
[13] = test system: Human immunodeficiency virus 1; assay: Antiviral activity against HIV1 wild type subtype B NL (4 to 3) transfected in human HEK293T cells by dual-luciferase reporter assay; type: functional, organism-based; conditions: Human immunodeficiency virus 1, HEK-293T
[14] = Half life in overnight fasted Beagle dog at 1 mg/kg, iv; type: ADME, organism-based, Canis lupus familiaris; conditions: in vivo
[15] = test system: Human immunodeficiency virus 1; assay: Antiviral activity against HIV1 NL (4 to 3) harbouring V362I mutant transfected in human HEK293T cells by dual-luciferase reporter assay; type: functional, organism-based; conditions: Human immunodeficiency virus 1, HEK-293T
[16] = Volume of distribution at steady state in overnight fasted Sprague-Dawley rat at 5 mg/kg, po or 1 mg/kg, iv; type: ADME, organism-based; conditions: in vivo
[17] = test system: Human immunodeficiency virus 1; assay: Antiviral activity against HIV1 wild type subtype B NL (4 to 3) harbouring V362/Q369/V370/T371 transfected in human HEK293T cells by dual-luciferase reporter assay; type: functional, organism-based; conditions: Human immunodeficiency virus 1, HEK-293T
[18] = Metabolic stability in dog liver microsomes assessed as half life in presence of NADPH at 0.5 uM by LC-MS/MS analysis; type: ADME, Canis lupus familiaris, Microsome
[19] = Cmax in overnight fasted Beagle dog at 2 mg/kg, po or 1 mg/kg, iv; type: ADME, organism-based, Canis lupus familiaris; parameters: dose 2 mg/kg, route po; conditions: in vivo
[20] = Half life in overnight fasted cynomolgus monkey at 1 mg/kg, iv; type: ADME, organism-based, Macaca fascicularis; conditions: in vivo
[21] = Half life in overnight fasted Sprague-Dawley rat at 1 mg/kg, iv; type: ADME, organism-based; conditions: in vivo
[22] = test system: Human immunodeficiency virus 1; assay: Antiviral activity against HIV1 virus harboring NL (4 to 3) harbouring […]/V370A mutant transfected in human HEK293T cells by luciferase reporter assay; type: functional, organism-based; conditions: Human immunodeficiency virus 1, HEK-293T
[23] = Plasma protein binding in human by ultracentrifugation; type: ADME, cell-free; conditions: read-out: PPB (converted)
[24] = AUC(0 to t) in overnight fasted mouse at 5 mg/kg, po or 1 mg/kg, iv; type: ADME, organism-based; parameters: dose 5 mg/kg, route po; conditions: in vivo
CYP3A4 = CYP3A4 (Homo sapiens, UniProt P08684); assay: Induction of CYP3A4 in human hepatocyte; type: ADME, cell-based; conditions: hepatocytes
Chain of CYP3A4 (P08684 whole entry): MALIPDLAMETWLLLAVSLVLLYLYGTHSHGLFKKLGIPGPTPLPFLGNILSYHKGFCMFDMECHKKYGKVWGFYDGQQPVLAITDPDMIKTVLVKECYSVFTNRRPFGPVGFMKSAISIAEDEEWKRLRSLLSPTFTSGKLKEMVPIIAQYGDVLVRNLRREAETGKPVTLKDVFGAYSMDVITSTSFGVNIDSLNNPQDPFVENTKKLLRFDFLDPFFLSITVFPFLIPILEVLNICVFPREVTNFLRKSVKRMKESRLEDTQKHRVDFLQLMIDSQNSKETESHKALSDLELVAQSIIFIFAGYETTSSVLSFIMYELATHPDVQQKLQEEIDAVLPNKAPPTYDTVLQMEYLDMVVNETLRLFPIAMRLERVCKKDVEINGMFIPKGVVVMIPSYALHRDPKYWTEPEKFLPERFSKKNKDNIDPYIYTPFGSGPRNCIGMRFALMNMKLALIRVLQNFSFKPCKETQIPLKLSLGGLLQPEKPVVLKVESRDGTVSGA

[25] = Half life in overnight fasted mouse at 1 mg/kg, iv; type: ADME, organism-based; conditions: in vivo
[26] = test system: Human immunodeficiency virus 1; assay: Antiviral activity against HIV1 wild type NL (4 to 3) infected in human MT2 cells measured after 4 to 5 days in presence of human serum by dual-luciferase reporter assay; type: functional, organism-based; conditions: mt2
[27] = test system: Human immunodeficiency virus 1; assay: Antiviral activity against HIV1 wild type subtype C NL (4 to 3) transfected in human HEK293T cells by dual-luciferase reporter assay; type: functional, organism-based; conditions: Human immunodeficiency virus 1, HEK-293T
[28] = test system: Human immunodeficiency virus 1; assay: Antiviral activity against HIV1 harbouring V362I/V370A mutant infected in human MT2 cells measured after 4 to 5 days by dual-luciferase reporter assay; type: functional, organism-based; conditions: Human immunodeficiency virus 1, MT2
[29] = Drug concentration in overnight fasted Sprague-Dawley rat plasma at 5 mg/kg, po or 1 mg/kg, iv measured after 24 hrs; type: ADME, organism-based
[30] = Oral bioavailability in overnight fasted Beagle dog using spray-dried dispersion at 2 mg/kg; type: ADME, organism-based, Canis lupus familiaris; conditions: in vivo
[31] = Drug concentration in overnight fasted Beagle dog plasma at 2 mg/kg, po or 1 mg/kg, iv measured after 24 hrs; type: ADME, organism-based, Canis lupus familiaris
[32] = Volume of distribution at steady state in overnight fasted mouse at 5 mg/kg, po or 1 mg/kg, iv; type: ADME, organism-based; conditions: in vivo

Chain of Cytochrome P450 3A4 (P08684 whole entry): as above

## C=C(C)[C@@H]1CC[C@]2(NCCN3CCS(=O)(=O)CC3)CC[C@]3(C)[C@H](CC[C@@H]4[C@@]5(C)CC=C(C6=CC[C@@](CF)(C(=O)O)CC6)C(C)(C)[C@@H]5CC[C@]43C)[C@@H]12 [FIPRAVIRIMAT]
[1]
  concentration at 24 h: 68 nM
Cytochrome P450 3A4
  IC50: > 13300 nM
[2]
  AUC(0-t): 7.6 µM·h
[3]
  Cmax: 2700 nM
[4]
  half-life at 0.5 µM: 0.467 h
[5]
  EC50: 3.6 nM
Cytochrome P450 2B6
  IC50: > 13300 nM
[6]
  bioavailability: 91%
[7]
  AUC(0-t): 7.4 µM·h
[8]
  AUCt: 4.3 µM·h
[9]
  EC50: 3 nM
Cytochrome P450 2D6
  IC50: > 13300 nM
Cytochrome P450 2C9
  IC50: > 13300 nM
Cytochrome P450 2C19
  IC50: > 13300 nM
[10]
  half-life at 0.5 µM: > 2 h
[11]
  Cmax: 800 nM
[12]
  concentration at 24 h: 179 nM
[13]
  EC50: 1.9 nM
[14]
  half-life: 18.7 h
[15]
  EC50: 2.7 nM
[16]
  Vdss: 1.8 L/kg
[17]
  EC50: 1.1 nM
[18]
  half-life at 0.5 µM: > 2 h
[19]
  Cmax: 4300 nM
[20]
  half-life: 5.3 h
[21]
  half-life: 4 h
[22]
  EC50: > 3000 nM
[23]
  fraction unbound: 0.14
[24]
  AUC(0-t): 29.9 µM·h
CYP3A4
  EC50: > 5000 nM
[25]
  half-life: 4.6 h
[26]
  EC50: 13.9 nM
[27]
  EC50: 1.2 nM
[28]
  EC50: 3 nM
[29]
  concentration at 24 h: 21.8 nM
[30]
  F: 117%
[31]
  concentration at 24 h: 1640 nM
[32]
  Vdss: 1 L/kg

Reference: ChEMBL document CHEMBL5113515, “The Discovery of GSK3640254, a Next-Generation Inhibitor of HIV-1 Maturation” (J Med Chem, 2022)
